# Experimental data reported in US20240382564A1, “Methods and Compositions for Treating Muscular Dystrophy and Memory Impairment” (Allysta Pharmaceuticals, Inc., priority 2023, published 2024).
# Entries after “also recorded” stand apart in the source; their conditions may differ. Where no end group is shown, it is not given here. [ ]: non-standard residue; d: D form. Nva = CCC[C@H](N)C(=O)O
# Legend:
# Assay type in all cases: in vivo, mouse
# [1] = system: D2.mdx mice; experiment: Cardiac (RV, LV) mitochondrial H2O2 emission and ADP-stimulated respiration
# Protocol: D2.mdx mice were treated daily subcutaneously beginning at 7 days of age for 3 weeks at 1 μL/g with ALY688 at 15 mg/kg body weight (high dose drug; HD) or with a saline (VEH) control. Mice were compared to age-matched wildtypes (DBA/2J). […] However, ADP-stimulated respiration supported by pyruvate was increased in VEH (36%) and HD (46%) vs wildtype whereas HD had no effect vs VEH.
# [2] = system: D2.mdx mice; experiment: Hippocampal high-resolution respirometry; conditions: 15 mg/kg daily; 15 μM ADP
# Protocol: Male D2.mdx mice originated from a colony maintained at York University (Toronto, Canada) and sourced from Jackson Laboratories (Stock Number 013141, Bar Harbor, United States). Mice were treated daily from days 7 to 28 of age with ALY688 at 15 mg/kg b.w. (D2.mdx-ALY688) or saline control (D2.mdx-VEH). This age was chosen given it captures an early stage of disease progression in cardiac and skeletal muscle. Mice were sacrificed 20-24 hr after the last dose. Breeding of wildtype mice was unsuccessful. Instead, three-week-old wildtype DBA/2J WT mice (D2A) were obtained from Jackson Laboratories (Stock number 000671, Bar Harbor, United States) and allowed to acclimatize for one week before sacrifice. Mice were housed in standard 12:12-hr light:dark cycles and were allowed access to standard rodent chow and water ad libitum. 4 days prior to sacrifice, all groups underwent novel object recognition acclimatization and testing as described below. Mice were anesthetized under 5% isoflurane vaporized in medical air (21% oxygen) at a flow rate of 2 L/min and then maintained at 2-3% prior to euthanasia by exsanguination. […]
# Mitochondrial oxygen consumption (respiration) was measured using the in situ brain permeabilization. […] Polarographic oxygen measurements were acquired in 2 s intervals with the rate of respiration derived from 40 data points and expressed as pmol/s/mg wet weight. […]
# [3] = system: D2.mdx mice; experiment: Hippocampal western blotting; conditions: hippocampus
# Protocol: Male D2.mdx mice originated from a colony maintained at York University (Toronto, Canada) and sourced from Jackson Laboratories (Stock Number 013141, Bar Harbor, United States). Mice were treated daily from days 7 to 28 of age with ALY688 at 15 mg/kg b.w. (D2.mdx-ALY688) or saline control (D2.mdx-VEH). This age was chosen given it captures an early stage of disease progression in cardiac and skeletal muscle. Mice were sacrificed 20-24 hr after the last dose. Breeding of wildtype mice was unsuccessful. Instead, three-week-old wildtype DBA/2J WT mice (D2A) were obtained from Jackson Laboratories (Stock number 000671, Bar Harbor, United States) and allowed to acclimatize for one week before sacrifice. Mice were housed in standard 12:12-hr light:dark cycles and were allowed access to standard rodent chow and water ad libitum. 4 days prior to sacrifice, all groups underwent novel object recognition acclimatization and testing as described below. Mice were anesthetized under 5% isoflurane vaporized in medical air (21% oxygen) at a flow rate of 2 L/min and then maintained at 2-3% prior to euthanasia by exsanguination. Muscles were removed and used for another investigation (under review at the time of this submission). The right and left hippocampus were then quickly dissected from the brain with a portion placed immediately into ice-cold BIOPS, containing (in mM): 50 MES Hydrate, 7.23 K2EGTA, 2.77 CaK2EGTA, 20 imidazole, 0.5 dithiothreitol, 20 taurine, 5.77 ATP, 15 PCr, and 6.56 MgCl2·6H2O (pH 7.1) or flash-frozen in liquid nitrogen and stored at −80° C. for RNA isolation and western blotting. All experiments and procedures were approved by the Animal Care Committee at York University (AUP Approval Number 2016-18) in accordance with the Canadian Council on Animal Care.
# Hippocampus tissue (collected from the same mice utilized in high-resolution respirometry experiments) was homogenized in cold lysis buffer containing (in mM; 20 Tris/HCl, 150 NaCl, 1 EDTA, 1 EGTA, 1% Triton X-100, 2.5 Na4O7P2, 1 Na3VO4, pH 7.0) supplemented with protease and phosphatase inhibitors (Sigma) according to the protocol established in Hughes MC et al. “Early myopathy in Duchenne muscular dystrophy is associated with elevated mitochondrial H2O2 emission during impaired oxidative phosphorylation.” Journal of Cachexia, Sarcopenia and Muscle. 2019; 10:643-61. […] For detection of total AMPK, p-AMPK, p-ULK1, p62, and LC3BII/I, proteins were transferred to a 0.2 μm low fluorescence polyvinylidene difluoride membrane using a Bio-Rad Trans Blot Turbo. […] The same washing protocol was repeated and then membranes were detected using infrared imaging (LI-COR CLx; LI-COR, Lincoln, NE, USA) and quantified by densitometry (ImageJ, http://imagej.nih.gov/ij/). […]
substance,measurement,setting,value
[dN]IP[Nva]LY[dS]FA[dS]-NH2 [ALY688],"ADP-stimulated respiration supported by pyruvate, HD vs VEH",[1]; LV,no effect
same,"ADP-stimulated respiration supported by pyruvate, increase vs wildtype","[1]; LV, HD, VEH 36%",46%
same,mH2O2 emissions supported by pyruvate,"[1]; LV, between groups",not different between groups
same,ADP-stimulated respiration supported by pyruvate,"[1]; RV, HD, VEH −49% vs wildtype",completely rescued
same,mH2O2 emission stimulated by pyruvate,"[1]; RV, HD, range of [ADP], VEH +88% vs wildtype",did not change
same,hippocampal pyruvate-supported respiration stimulated by ADP,[2],completely preserved; also recorded: complete restoration
same,degree of AMPK activation (p-AMPK or p-AMPK/AMPK),[3],not altered
same,total AMPK protein,[3],lower
same,protein content of total raptor,[3]; increased in D2.mdx vs WT,completely prevented the increases
same,protein content of total tau,[3]; increased in D2.mdx vs WT,completely prevented the increases
